{"source": "paper PMC8037182", "about": "“Solvothermal Synthesis of Multiple Dihydropyrimidinones at a Time as Inhibitors of Eg5” (Molecules, 2021)", "key": {"L929 cell line": {"test_system": "L929 cell line", "assay": "Cytotoxicity MTS assay, L929 cell line", "type": "cell-based", "details": "for OD490 values, Mean / OD490 values, Well 1 / OD490 values, Well 2 / OD490 values, Well 3: L929 cell line, first assay", "procedure,_shortened": "(§1)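 IC50 reflects non-linear regression of percent cell viability on compound concentration, tested from 0.5 to 100 µM final during a 24 h exposure. Viability was read by MTS at 490 nm; monastrol served as positive control and 0.025% DMSO as blank.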"}, "Hela cell line": {"test_system": "Hela cell line", "assay": "Cytotoxicity MTS assay, Hela cell line", "type": "cell-based", "details": "for OD490 value, Mean / OD490 value, Well 1 / OD490 value, Well 2 / OD490 value, Well 3: Hela cell line, MTS", "procedure,_shortened": "as §1"}}}
{"smiles": "CCOC(=O)c1c(C2NC(=O)NC(C)=C2C(=O)Nc2ccccc2)[nH]c(C(=O)OC)c1C", "note": "(centres unmarked) [D10]", "values": [{"measurement": "OD490 values, Mean", "setting": "L929 cell line; 0.5μM", "value": 1.1783}, {"measurement": "OD490 values, Well 1", "setting": "L929 cell line; 0.5μM", "value": 1.1608}, {"measurement": "OD490 values, Well 2", "setting": "L929 cell line; 0.5μM", "value": 1.2289}, {"measurement": "OD490 values, Well 3", "setting": "L929 cell line; 0.5μM", "value": 1.1452}, {"measurement": "OD490 values, Mean", "setting": "L929 cell line; 1μM", "value": 1.1453}, {"measurement": "OD490 values, Well 1", "setting": "L929 cell line; 1μM", "value": 1.2474}, {"measurement": "OD490 values, Well 2", "setting": "L929 cell line; 1μM", "value": 1.0902}, {"measurement": "OD490 values, Well 3", "setting": "L929 cell line; 1μM", "value": 1.0983}, {"measurement": "OD490 values, Mean", "setting": "L929 cell line; 10μM", "value": 1.1621}, {"measurement": "OD490 values, Well 1", "setting": "L929 cell line; 10μM", "value": 1.1874}, {"measurement": "OD490 values, Well 2", "setting": "L929 cell line; 10μM", "value": 1.1922}, {"measurement": "OD490 values, Well 3", "setting": "L929 cell line; 10μM", "value": 1.1066}, {"measurement": "OD490 values, Mean", "setting": "L929 cell line; 25μM", "value": 1.1923}, {"measurement": "OD490 values, Well 1", "setting": "L929 cell line; 25μM", "value": 1.1856}, {"measurement": "OD490 values, Well 2", "setting": "L929 cell line; 25μM", "value": 1.2091}, {"measurement": "OD490 values, Well 3", "setting": "L929 cell line; 25μM", "value": 1.1822}, {"measurement": "OD490 values, Mean", "setting": "L929 cell line; 50μM", "value": 1.0704}, {"measurement": "OD490 values, Well 1", "setting": "L929 cell line; 50μM", "value": 0.9680}, {"measurement": "OD490 values, Well 2", "setting": "L929 cell line; 50μM", "value": 1.0467}, {"measurement": "OD490 values, Well 3", "setting": "L929 cell line; 50μM", "value": 1.1965}, {"measurement": "OD490 values, Mean", "setting": "L929 cell line; 100μM", "value": 0.9201}, {"measurement": "OD490 values, Well 1", "setting": "L929 cell line; 100μM", "value": 0.8725}, {"measurement": "OD490 values, Well 2", "setting": "L929 cell line; 100μM", "value": 0.9125}, {"measurement": "OD490 values, Well 3", "setting": "L929 cell line; 100μM", "value": 0.9752}, {"measurement": "IC50", "setting": "L929 cell line; MTS assay, 24 h exposure, ordinary fibroblast, not cancer cells", "value": "> 150", "unit": "µM"}, {"measurement": "OD490 value, Mean", "setting": "Hela cell line; 0.5μM, first assay", "value": 2.4433}, {"measurement": "OD490 value, Well 1", "setting": "Hela cell line; 0.5μM, first assay", "value": 2.2781}, {"measurement": "OD490 value, Well 2", "setting": "Hela cell line; 0.5μM, first assay", "value": 2.4004}, {"measurement": "OD490 value, Well 3", "setting": "Hela cell line; 0.5μM, first assay", "value": 2.6514}, {"measurement": "OD490 value, Mean", "setting": "Hela cell line; 0.5μM, second assay", "value": 2.6180}, {"measurement": "OD490 value, Well 1", "setting": "Hela cell line; 0.5μM, second assay", "value": 2.6587}, {"measurement": "OD490 value, Well 2", "setting": "Hela cell line; 0.5μM, second assay", "value": 2.4789}, {"measurement": "OD490 value, Well 3", "setting": "Hela cell line; 0.5μM, second assay", "value": 2.7165}, {"measurement": "OD490 value, Mean", "setting": "Hela cell line; 0.5μM, third assay", "value": 2.7318}, {"measurement": "OD490 value, Well 1", "setting": "Hela cell line; 0.5μM, third assay", "value": 2.6365}, {"measurement": "OD490 value, Well 2", "setting": "Hela cell line; 0.5μM, third assay", "value": 2.6647}, {"measurement": "OD490 value, Well 3", "setting": "Hela cell line; 0.5μM, third assay", "value": 2.8942}, {"measurement": "OD490 value, Mean", "setting": "Hela cell line; 1μM, first assay", "value": 2.5456}, {"measurement": "OD490 value, Well 1", "setting": "Hela cell line; 1μM, first assay", "value": 2.4058}, {"measurement": "OD490 value, Well 2", "setting": "Hela cell line; 1μM, first assay", "value": 2.5965}, {"measurement": "OD490 value, Well 3", "setting": "Hela cell line; 1μM, first assay", "value": 2.6345}, {"measurement": "OD490 value, Mean", "setting": "Hela cell line; 1μM, second assay", "value": 2.6802}, {"measurement": "OD490 value, Well 1", "setting": "Hela cell line; 1μM, second assay", "value": 2.6241}, {"measurement": "OD490 value, Well 2", "setting": "Hela cell line; 1μM, second assay", "value": 2.8523}, {"measurement": "OD490 value, Well 3", "setting": "Hela cell line; 1μM, second assay", "value": 2.5641}, {"measurement": "OD490 value, Mean", "setting": "Hela cell line; 1μM, third assay", "value": 2.6076}, {"measurement": "OD490 value, Well 1", "setting": "Hela cell line; 1μM, third assay", "value": 2.6360}, {"measurement": "OD490 value, Well 2", "setting": "Hela cell line; 1μM, third assay", "value": 2.5412}, {"measurement": "OD490 value, Well 3", "setting": "Hela cell line; 1μM, third assay", "value": 2.6456}, {"measurement": "OD490 value, Mean", "setting": "Hela cell line; 10μM, first assay", "value": 2.4164}, {"measurement": "OD490 value, Well 1", "setting": "Hela cell line; 10μM, first assay", "value": 2.2701}, {"measurement": "OD490 value, Well 2", "setting": "Hela cell line; 10μM, first assay", "value": 2.4384}, {"measurement": "OD490 value, Well 3", "setting": "Hela cell line; 10μM, first assay", "value": 2.5408}, {"measurement": "OD490 value, Mean", "setting": "Hela cell line; 10μM, second assay", "value": 2.3656}, {"measurement": "OD490 value, Well 1", "setting": "Hela cell line; 10μM, second assay", "value": 2.3071}, {"measurement": "OD490 value, Well 2", "setting": "Hela cell line; 10μM, second assay", "value": 2.3385}, {"measurement": "OD490 value, Well 3", "setting": "Hela cell line; 10μM, second assay", "value": 2.4512}, {"measurement": "OD490 value, Mean", "setting": "Hela cell line; 10μM, third assay", "value": 2.4636}, {"measurement": "OD490 value, Well 1", "setting": "Hela cell line; 10μM, third assay", "value": 2.3685}, {"measurement": "OD490 value, Well 2", "setting": "Hela cell line; 10μM, third assay", "value": 2.4635}, {"measurement": "OD490 value, Well 3", "setting": "Hela cell line; 10μM, third assay", "value": 2.5587}, {"measurement": "OD490 value, Mean", "setting": "Hela cell line; 25μM, first assay", "value": 2.2246}, {"measurement": "OD490 value, Well 1", "setting": "Hela cell line; 25μM, first assay", "value": 1.9325}, {"measurement": "OD490 value, Well 2", "setting": "Hela cell line; 25μM, first assay", "value": 2.3409}, {"measurement": "OD490 value, Well 3", "setting": "Hela cell line; 25μM, first assay", "value": 2.4004}, {"measurement": "OD490 value, Mean", "setting": "Hela cell line; 25μM, second assay", "value": 2.1531}, {"measurement": "OD490 value, Well 1", "setting": "Hela cell line; 25μM, second assay", "value": 2.0147}, {"measurement": "OD490 value, Well 2", "setting": "Hela cell line; 25μM, second assay", "value": 2.2032}, {"measurement": "OD490 value, Well 3", "setting": "Hela cell line; 25μM, second assay", "value": 2.2414}, {"measurement": "OD490 value, Mean", "setting": "Hela cell line; 25μM, third assay", "value": 2.1839}, {"measurement": "OD490 value, Well 1", "setting": "Hela cell line; 25μM, third assay", "value": 2.1010}, {"measurement": "OD490 value, Well 2", "setting": "Hela cell line; 25μM, third assay", "value": 2.1141}, {"measurement": "OD490 value, Well 3", "setting": "Hela cell line; 25μM, third assay", "value": 2.3365}, {"measurement": "OD490 value, Mean", "setting": "Hela cell line; 50μM, first assay", "value": 1.8479}, {"measurement": "OD490 value, Well 1", "setting": "Hela cell line; 50μM, first assay", "value": 1.6416}, {"measurement": "OD490 value, Well 2", "setting": "Hela cell line; 50μM, first assay", "value": 1.7737}, {"measurement": "OD490 value, Well 3", "setting": "Hela cell line; 50μM, first assay", "value": 2.1285}, {"measurement": "OD490 value, Mean", "setting": "Hela cell line; 50μM, second assay", "value": 1.7649}, {"measurement": "OD490 value, Well 1", "setting": "Hela cell line; 50μM, second assay", "value": 1.7425}, {"measurement": "OD490 value, Well 2", "setting": "Hela cell line; 50μM, second assay", "value": 1.7321}, {"measurement": "OD490 value, Well 3", "setting": "Hela cell line; 50μM, second assay", "value": 1.8201}, {"measurement": "OD490 value, Mean", "setting": "Hela cell line; 50μM, third assay", "value": 1.8099}, {"measurement": "OD490 value, Well 1", "setting": "Hela cell line; 50μM, third assay", "value": 1.7845}, {"measurement": "OD490 value, Well 2", "setting": "Hela cell line; 50μM, third assay", "value": 1.8032}, {"measurement": "OD490 value, Well 3", "setting": "Hela cell line; 50μM, third assay", "value": 1.8420}, {"measurement": "OD490 value, Mean", "setting": "Hela cell line; 100μM, first assay", "value": 1.6845}, {"measurement": "OD490 value, Well 1", "setting": "Hela cell line; 100μM, first assay", "value": 1.6759}, {"measurement": "OD490 value, Well 2", "setting": "Hela cell line; 100μM, first assay", "value": 1.7430}, {"measurement": "OD490 value, Well 3", "setting": "Hela cell line; 100μM, first assay", "value": 1.6346}, {"measurement": "OD490 value, Mean", "setting": "Hela cell line; 100μM, second assay", "value": 1.6082}, {"measurement": "OD490 value, Well 1", "setting": "Hela cell line; 100μM, second assay", "value": 1.6324}, {"measurement": "OD490 value, Well 2", "setting": "Hela cell line; 100μM, second assay", "value": 1.5024}, {"measurement": "OD490 value, Well 3", "setting": "Hela cell line; 100μM, second assay", "value": 1.6898}, {"measurement": "OD490 value, Mean", "setting": "Hela cell line; 100μM, third assay", "value": 1.7036}, {"measurement": "OD490 value, Well 1", "setting": "Hela cell line; 100μM, third assay", "value": 1.6578}, {"measurement": "OD490 value, Well 2", "setting": "Hela cell line; 100μM, third assay", "value": 1.6988}, {"measurement": "OD490 value, Well 3", "setting": "Hela cell line; 100μM, third assay", "value": 1.7542}, {"measurement": "IC50", "setting": "Hela cell line; MTS assay, 24 h exposure", "value": 108, "unit": "µM"}]}
